Results taken from US10456388B2, “Antihistamine for use in treatment of breast cancer” (BELINA PHARMA AB, priority 2015, dated 2019).
Read-outs that look alike come from different tables or passages of the source.

Key:
breast cancer cases = test: Replication study, extended breast cancer material Swedish Cancer Registry 2000-2013 (n=103 500 cases), late entry models; assay type: in vivo, human; conditions: for Breast cancer survival HR / Overall survival HR: use after diagnosis, adjusted for age, tumour stage, late entry models; for Survival of users compared with non-users, in words: replication study, Table 10; for Breast cancer survival HR by desloratadine use: late entry model; for BC survival HR: extended study, real patient data
Experimental: Using an extended breast cancer material of all cases from the Swedish Cancer Registry 2000-2013 (n=103 500 cases) linking the data with the Drug Prescription Registry a replication study was carried out. The data from this extended study can be found in Tables 10 and 11. With the larger set of data, the effect for each individual antihistamine becomes more pronounced.
Using an extended breast cancer material of all cases from the Swedish Cancer Registry 2000-2013 (n=103 500 cases) linking the data with the Drug Prescription Registry a replication study was carried out. The data from this extended study are represented in tables 10 and 11.
Using an extended breast cancer material of all cases from the Swedish Cancer Registry 2000-2013 (n=103 500 cases) linking the data with the Drug Prescription Registry, a replication study was carried out, as shown in table 10.

women with invasive BC [1] = conditions: for BC specific survival compared to controls (Kaplan-Meier, univariate): ever-use model, FIGS. 1 to 3; for Dead in BC (Yes): groups by main antihistamine used, all patients from 2000-2008
women with invasive BC [2] = conditions: for HR (CI), late entry model: adjusted for age at BC diagnosis and TN; for Dead in BC (Yes): groups by main antihistamine used, patients from 1st of Jul. 2005-31st of Dec. 2008; for BC specific survival compared to controls (Kaplan-Meier, univariate) / Hazard ratio Exp(B), ER Negative Breast Cancer / Hazard ratio Exp(B), ER Positive Breast Cancer: late entry model; for BC specific survival compared to controls (Kaplan-Meier, univariate): FIGS. 4 and 5; for Hazard ratio Exp(B), ER Negative Breast Cancer / Hazard ratio Exp(B), ER Positive Breast Cancer / Hazard ratio Exp(B), Cox proportional hazard - late entry model: adjusted for age at BC diagnosis and TN-stage; for Hazard ratio Exp(B), Cox proportional hazard - late entry model: ever-use vs controls, cases before 1st of Jul. 2005 and unknown N-status censored, Table 5
[3] = multi dose studies with 100 mg per day; cited from earlier work
[4] = Survival 2009-2014 (title: 2009-2013)

SMILES | Breast cancer survival HR (breast cancer cases; Survival 2005-2008) | Overall survival HR (breast cancer cases; Survival 2005-2008) | Breast cancer survival HR (breast cancer cases; [4]) | Overall survival HR (breast cancer cases; [4]) | Survival of users compared with non-users, in words (breast cancer cases) | BC specific survival compared to controls (Kaplan-Meier, univariate) (women with invasive BC [1]) | Dead in BC (Yes) (women with invasive BC [1]) | HR (CI), late entry model (women with invasive BC [2]) | Dead in BC (Yes) (women with invasive BC [2]) | BC specific survival compared to controls (Kaplan-Meier, univariate) (women with invasive BC [2]) | Clinical side effects [3] | Breast cancer survival HR by desloratadine use (breast cancer cases; <400 days use vs never) | Survival HR, users compared with non users (breast cancer cases; years before 2009) | Breast cancer survival HR by desloratadine use (breast cancer cases; ≥400 days use vs never) | Effect on breast cancer survival rate by treatment period (FIG. 7) (women with invasive BC [2]; use only after the BC diagnosis) | Effect on breast cancer survival rate by treatment period (FIG. 7) (women with invasive BC [2]; use only before the BC diagnosis) | BC survival HR (breast cancer cases) | Hazard ratio Exp(B), ER Negative Breast Cancer (women with invasive BC [2]) | Hazard ratio Exp(B), ER Positive Breast Cancer (women with invasive BC [2]) | Hazard ratio Exp(B), Cox proportional hazard - late entry model (women with invasive BC [2])
CC(C)(C)c1ccc(C(=O)CCCN2CCC(OC(c3ccccc3)c3ccccc3)CC2)cc1 [Ebastin, ebastin] | 0.25 | 0.48 | 0.75 | 0.91 | better overall and BC specific survival | clear, statistically significant, longer BC specific survival | 6.7% | 0.50 (0.22-1.12) | 5.7% | statistically significant longer BC specific survival | did not show any further clinical side effects | – | – | – | – | – | – | – | – | –
Clc1ccc2c(c1)CCc1cccnc1C2=C1CCNCC1 [Desloratadine, desloratadine] | 0.47 | 0.47 | 0.74 | 0.71 | better overall and BC specific survival | clear, statistically significant, longer BC specific survival | 7.1% | – | 8.1% | statistically significant longer BC specific survival | – | 0.94 | 0.63 | 0.62 | clear positive effects can be shown | no positive effects on breast cancer survival rate can be established | – | – | – | –
CN1CCC[C@@H]1CCO[C@](C)(c1ccccc1)c1ccc(Cl)cc1 [Klemastine, klemastine] | 1.43 | 2.07 | 0.94 | 1.08 | negatively affects survival | clear, statistically significant, longer BC specific survival | 13.8% | 0.98 (0.80-1.19) | 14.3% | non-statistically significant longer BC specific survival | – | – | – | – | – | – | 1.12 | – | – | –
CC(C)(C(=O)O)c1ccc(C(O)CCCN2CCC(C(O)(c3ccccc3)c3ccccc3)CC2)cc1 (centres unmarked) [Fexofenadine, fexofenadine] | 1.20 | 1.40 | 0.85 | 0.65 | – | clear, statistically significant, longer BC specific survival | 9.0% | 0.73 (0.30-1.76) | 11.6% | non-statistically significant longer BC specific survival | – | – | – | – | – | – | – | .316 | .826 | .802
CCOC(=O)N1CCC(=C2c3ccc(Cl)cc3CCc3cccnc32)CC1 [Loratadine, loratadine] | 0.77 | 1.05 | 0.93 | 0.86 | – | clear, statistically significant, longer BC specific survival | 11.7% | 0.74 (0.60-0.93) | 10.4% | statistically significant longer BC specific survival | – | – | – | – | – | – | – | .945 | 1.087 | .816
O=C(O)COCCN1CCN(C(c2ccccc2)c2ccc(Cl)cc2)CC1 (centres unmarked) [Cetirizine, cetirizine] | 1.08 | 1.41 | 1.21 | 1.09 | negatively affects survival | initially had a higher survival percentage compared to controls, but with time it became lower compared to controls | 18.0% | 1.13 (0.96-1.33) | 16.5% | non-statistically significant longer BC specific survival | – | – | – | – | – | – | 1.28 | 1.491 | 2.166 | 1.194
